Legend:
Assay type in all cases: cell-based
panel of 168 GPCRs [1] = target: panel of 168 GPCRs (Homo sapiens, UniProt P08173); conditions: GPCR CHRM4; agonist, 10 μM
panel of 168 GPCRs [2] = target: panel of 168 GPCRs (Homo sapiens, UniProt P08908); conditions: GPCR HTR1A; agonist, 10 μM
panel of 168 GPCRs [3] = target: panel of 168 GPCRs (Homo sapiens, UniProt P18089); conditions: GPCR ADRA2B; agonist, 10 μM
panel of 168 GPCRs [4] = target: panel of 168 GPCRs (Homo sapiens, UniProt P21462); conditions: GPCR FPR1; agonist, 10 μM
panel of 168 GPCRs [5] = target: panel of 168 GPCRs (Homo sapiens, UniProt P21554); conditions: GPCR CNR1; agonist, 10 μM
panel of 168 GPCRs [6] = target: panel of 168 GPCRs (Homo sapiens, UniProt P21731); conditions: GPCR TBXA2R; agonist, 10 μM
panel of 168 GPCRs [7] = target: panel of 168 GPCRs (Homo sapiens, UniProt P21917); conditions: GPCR DRD4; agonist, 10 μM
panel of 168 GPCRs [8] = target: panel of 168 GPCRs (Homo sapiens, UniProt P25021); conditions: GPCR HRH2; agonist, 10 μM
panel of 168 GPCRs [9] = target: panel of 168 GPCRs (Homo sapiens, UniProt P25106); conditions: GPCR CXCR7; agonist, 10 μM
panel of 168 GPCRs [10] = target: panel of 168 GPCRs (Homo sapiens, UniProt P25116); conditions: GPCR F2R; agonist, 10 μM
panel of 168 GPCRs [11] = target: panel of 168 GPCRs (Homo sapiens, UniProt P28222); conditions: GPCR HTR1B; agonist, 10 μM
panel of 168 GPCRs [12] = target: panel of 168 GPCRs (Homo sapiens, UniProt P28566); conditions: GPCR HTR1E; agonist, 10 μM
panel of 168 GPCRs [13] = target: panel of 168 GPCRs (Homo sapiens, UniProt P30559); conditions: GPCR OXTR; agonist, 10 μM
panel of 168 GPCRs [14] = target: panel of 168 GPCRs (Homo sapiens, UniProt P32248); conditions: GPCR CCR7; agonist, 10 μM
panel of 168 GPCRs [15] = target: panel of 168 GPCRs (Homo sapiens, UniProt P33032); conditions: GPCR MC5R; agonist, 10 μM
panel of 168 GPCRs [16] = target: panel of 168 GPCRs (Homo sapiens, UniProt P35372); conditions: GPCR OPRM1; agonist, 10 μM
panel of 168 GPCRs [17] = target: panel of 168 GPCRs (Homo sapiens, UniProt P35462); conditions: GPCR DRD3; agonist, 10 μM
panel of 168 GPCRs [18] = target: panel of 168 GPCRs (Homo sapiens, UniProt P43115); conditions: GPCR PTGER3; agonist, 10 μM
panel of 168 GPCRs [19] = target: panel of 168 GPCRs (Homo sapiens, UniProt P43119); conditions: GPCR PTGIR; agonist, 10 μM
panel of 168 GPCRs [20] = target: panel of 168 GPCRs (Homo sapiens, UniProt P47211); conditions: GPCR GALR1; agonist, 10 μM
panel of 168 GPCRs [21] = target: panel of 168 GPCRs (Homo sapiens, UniProt P48546); conditions: GPCR GIPR; agonist, 10 μM
panel of 168 GPCRs [22] = target: panel of 168 GPCRs (Homo sapiens, UniProt P49238); conditions: GPCR CX3CR1; agonist, 10 μM
panel of 168 GPCRs [23] = target: panel of 168 GPCRs (Homo sapiens, UniProt P49682); conditions: GPCR CXCR3; agonist, 10 μM
panel of 168 GPCRs [24] = target: panel of 168 GPCRs (Homo sapiens, UniProt P49683); conditions: GPCR PRLHR; agonist, 10 μM
panel of 168 GPCRs [25] = target: panel of 168 GPCRs (Homo sapiens, UniProt P51582); conditions: GPCR P2RY4; agonist, 10 μM
panel of 168 GPCRs [26] = target: panel of 168 GPCRs (Homo sapiens, UniProt P51681); conditions: GPCR CCR5; agonist, 10 μM
panel of 168 GPCRs [27] = target: panel of 168 GPCRs (Homo sapiens, UniProt Q96LB1); conditions: GPCR MRGPRX2; agonist, 10 μM
panel of 168 GPCRs [28] = target: panel of 168 GPCRs (Homo sapiens, UniProt Q96P65); conditions: GPCR GPR103; agonist, 10 μM
panel of 168 GPCRs [29] = target: panel of 168 GPCRs (Homo sapiens, UniProt Q9H1C0); conditions: GPCR GPR92; agonist, 10 μM
panel of 168 GPCRs [30] = target: panel of 168 GPCRs (Homo sapiens, UniProt Q9HBW0); conditions: GPCR EDG4; agonist, 10 μM
panel of 168 GPCRs [31] = target: panel of 168 GPCRs (Homo sapiens, UniProt Q9NSD7); conditions: GPCR RXFP3; agonist, 10 μM
panel of 168 GPCRs [32] = target: panel of 168 GPCRs (Homo sapiens, UniProt Q9UKP6); conditions: GPCR UTR2; agonist, 10 μM

Chain of panel of 168 GPCRs (Homo sapiens, UniProt P32248) (P32248 25-378 limits assumed): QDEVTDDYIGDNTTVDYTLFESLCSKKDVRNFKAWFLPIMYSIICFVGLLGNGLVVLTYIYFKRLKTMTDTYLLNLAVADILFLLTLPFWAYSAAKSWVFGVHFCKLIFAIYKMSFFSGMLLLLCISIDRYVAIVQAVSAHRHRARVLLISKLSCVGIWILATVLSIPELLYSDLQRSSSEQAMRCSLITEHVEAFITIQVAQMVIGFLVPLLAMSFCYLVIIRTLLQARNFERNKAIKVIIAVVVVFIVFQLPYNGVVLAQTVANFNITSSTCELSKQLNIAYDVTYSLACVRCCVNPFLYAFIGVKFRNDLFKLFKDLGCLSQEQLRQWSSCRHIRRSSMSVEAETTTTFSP
Chain of panel of 168 GPCRs (Homo sapiens, UniProt P25116) (P25116 22-425 limits assumed): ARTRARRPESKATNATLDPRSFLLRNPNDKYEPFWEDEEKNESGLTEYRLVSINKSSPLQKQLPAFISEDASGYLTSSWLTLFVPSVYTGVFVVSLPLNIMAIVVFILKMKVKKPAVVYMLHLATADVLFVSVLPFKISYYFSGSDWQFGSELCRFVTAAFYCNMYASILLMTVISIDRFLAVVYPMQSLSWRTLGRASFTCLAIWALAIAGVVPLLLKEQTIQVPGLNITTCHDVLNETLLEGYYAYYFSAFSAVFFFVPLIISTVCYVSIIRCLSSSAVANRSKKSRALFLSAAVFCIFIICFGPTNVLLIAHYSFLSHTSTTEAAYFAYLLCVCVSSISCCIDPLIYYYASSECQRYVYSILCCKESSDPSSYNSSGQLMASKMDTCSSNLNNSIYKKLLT
Chain of panel of 168 GPCRs (Homo sapiens, UniProt P48546) (P48546 22-466 limits assumed): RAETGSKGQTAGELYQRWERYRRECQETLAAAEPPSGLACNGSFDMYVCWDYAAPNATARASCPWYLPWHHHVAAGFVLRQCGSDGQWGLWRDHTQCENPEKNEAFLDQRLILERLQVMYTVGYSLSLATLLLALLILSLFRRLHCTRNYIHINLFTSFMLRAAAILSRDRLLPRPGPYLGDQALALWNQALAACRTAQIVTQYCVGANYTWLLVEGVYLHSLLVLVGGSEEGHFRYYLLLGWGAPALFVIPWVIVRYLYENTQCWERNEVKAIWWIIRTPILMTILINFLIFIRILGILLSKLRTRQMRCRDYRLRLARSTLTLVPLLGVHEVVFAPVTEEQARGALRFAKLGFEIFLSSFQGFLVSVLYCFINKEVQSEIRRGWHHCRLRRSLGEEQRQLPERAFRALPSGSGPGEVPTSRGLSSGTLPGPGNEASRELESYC

SMILES: COc1ccc(OCCN2CCN(C(=O)c3cc4ccccc4[nH]3)CC2)cc1 [Compound 1, (1H-indol-2-yl)(4-(2-(4-methoxyphenoxy)ethyl)piperazin-1-yl)methanone]
- β-Arrestin Recruitment activity (panel of 168 GPCRs [1]): 3%
- β-Arrestin Recruitment activity (panel of 168 GPCRs [2]): 8%
- β-Arrestin Recruitment activity (panel of 168 GPCRs [3]): −4%
- β-Arrestin Recruitment activity (panel of 168 GPCRs [4]): 5%
- β-Arrestin Recruitment activity (panel of 168 GPCRs [5]): 5%
- β-Arrestin Recruitment activity (panel of 168 GPCRs [6]): 0%
- β-Arrestin Recruitment activity (panel of 168 GPCRs [7]): 4%
- β-Arrestin Recruitment activity (panel of 168 GPCRs [8]): 3%
- β-Arrestin Recruitment activity (panel of 168 GPCRs [9]): 3%
- β-Arrestin Recruitment activity (panel of 168 GPCRs [10]): 5%
- β-Arrestin Recruitment activity (panel of 168 GPCRs [11]): 16%
- β-Arrestin Recruitment activity (panel of 168 GPCRs [12]): 4%
- β-Arrestin Recruitment activity (panel of 168 GPCRs [13]): 0%
- β-Arrestin Recruitment activity (panel of 168 GPCRs [14]): 4%
- β-Arrestin Recruitment activity (panel of 168 GPCRs [15]): 5%
- β-Arrestin Recruitment activity (panel of 168 GPCRs [16]): 0%
- β-Arrestin Recruitment activity (panel of 168 GPCRs [17]): 164%
- β-Arrestin Recruitment activity (panel of 168 GPCRs [18]): 3%
- β-Arrestin Recruitment activity (panel of 168 GPCRs [19]): 4%
- β-Arrestin Recruitment activity (panel of 168 GPCRs [20]): 4%
- β-Arrestin Recruitment activity (panel of 168 GPCRs [21]): 3%
- β-Arrestin Recruitment activity (panel of 168 GPCRs [22]): 0%
- β-Arrestin Recruitment activity (panel of 168 GPCRs [23]): 5%
- β-Arrestin Recruitment activity (panel of 168 GPCRs [24]): 4%
- β-Arrestin Recruitment activity (panel of 168 GPCRs [25]): 13%
- β-Arrestin Recruitment activity (panel of 168 GPCRs [26]): 0%
- β-Arrestin Recruitment activity (panel of 168 GPCRs [27]): 5%
- β-Arrestin Recruitment activity (panel of 168 GPCRs [28]): −9%
- β-Arrestin Recruitment activity (panel of 168 GPCRs [29]): 6%
- β-Arrestin Recruitment activity (panel of 168 GPCRs [30]): 6%
- β-Arrestin Recruitment activity (panel of 168 GPCRs [31]): 5%
- β-Arrestin Recruitment activity (panel of 168 GPCRs [32]): 0%
